Source: patent publication US20200016136A1 (VIIV HEALTHCARE UK (NO. 5) LIMITED, priority 2017, published 2020)

Test system: NL-RLuc virus (recombinant NL4-3 HIV with Renilla Luciferase gene)
Test: Inhibition of HIV replication (NL-RLuc virus in MT-2 cells, luciferase readout)
Type: cell-based, Human immunodeficiency virus (HIV)
Settings: MT2, 120 h
Summary of the method: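 EC50 derived via median effect equation from at least 2 experiments, using luciferase expression as virus-growth readout. Replication-competent NL-RLuc reporter virus (nef partly replaced by Renilla luciferase) infected MT-2 cells with serial compound dilutions; 5-day incubation in RPMI 1640 plus 10% FBS.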

Cc1nc(C)c([C@H](OC(C)(C)C)C(=O)O)c(N2CCC(C)(C)CC2)c1-c1ccc2c(c1)CCN(c1ncnc(N3CCOCC3)n1)C2 [Example 60, (S)-2-(tert-Butoxy)-2-(4-(4,4-dimethylpiperidin-1-yl)-2,6-dimethyl-5-(2-(4-morpholino-1,3,5-triazin-2-yl)-1,2,3,4-tetrahydroisoquinolin-6-yl)pyridin-3-yl)acetic Acid]
EC50: 0.6 nM

Cc1nc(C)c([C@H](OC(C)(C)C)C(=O)O)c(N2CCC(C)(C)CC2)c1-c1ccc2c(c1)CCN(c1ccnc(N3CCC(O)CC3)n1)C2 [Example 75, (S)-2-(tert-Butoxy)-2-(4-(4,4-dimethylpiperidin-1-yl)-5-(2-(2-(4-hydroxypiperidin-1-yl)pyrimidin-4-yl)-1,2,3,4-tetrahydroisoquinolin-6-yl)-2,6-dimethylpyridin-3-yl)acetic Acid]
EC50: 3 nM

CC1(C)CCN(c2c(-c3ccc4c(c3)CCN(c3ncnc5c3oc3ncccc35)C4)cnc(Cl)c2[C@H](OC(C)(C)C)C(=O)O)CC1 [Example 92, (S)-2-(tert-Butoxy)-2-(2-chloro-4-(4,4-dimethylpiperidin-1-yl)-5-(2-(pyrido[3′,2′:4,5]furo[3,2-d]pyrimidin-4-yl)-1,2,3,4-tetrahydroisoquinolin-6-yl)pyridin-3-yl)acetic Acid]
EC50: 0.6 nM

Cc1cccc(Cl)c1CN1CCc2cc(-c3c(CO)nc(Cl)c([C@H](OC(C)(C)C)C(=O)O)c3N3CCC(C)(C)CC3)ccc2C1 [Example 97, (S)-2-(tert-Butoxy)-2-(2-chloro-5-(2-(2-chloro-6-methylbenzyl)-1,2,3,4-tetrahydroisoquinolin-6-yl)-4-(4,4-dimethylpiperidin-1-yl)-6-(hydroxymethyl)pyridin-3-yl)acetic Acid]
EC50: 2 nM

Cc1nc(N2CCc3cc(-c4c(C)nc(C)c([C@H](OC(C)(C)C)C(=O)O)c4N4CCC(C)(C)CC4)ccc3C2)c2oc3ccccc3c2n1 [Example 128, (S)-2-(tert-Butoxy)-2-(4-(4,4-dimethylpiperidin-1-yl)-2,6-dimethyl-5-(2-(2-methylbenzofuro[3,2-d]pyrimidin-4-yl)-1,2,3,4-tetrahydroisoquinolin-6-yl)pyridin-3-yl)acetic Acid]
EC50: 2 nM

Cc1nc(CO)c([C@H](OC(C)(C)C)C(=O)O)c(N2CCC(C)(C)CC2)c1-c1ccc2c(c1)CCN(c1ncnc3c1oc1ccccc13)C2 [Example 133, (S)-2-(5-(2-(Benzofuro[3,2-d]pyrimidin-4-yl)-1,2,3,4-tetrahydroisoquinolin-6-yl)-4-(4,4-dimethylpiperidin-1-yl)-2-(hydroxymethyl)-6-methylpyridin-3-yl)-2-(tert-butoxy)acetic Acid]
EC50: 3 nM

CCC(C)(C)O[C@H](C(=O)O)c1c(C)ncc(-c2ccc3c(c2)CCN(Cc2ccc(F)cc2C)C3)c1N1CCC(C)(C)CC1 [Example 54, (2S)-2-[4-(4,4-Dimethylpiperidin-1-yl)-5-{2-[(4-fluoro-2-methylphenyl)methyl]-1,2,3,4-tetrahydroisoquinolin-6-yl}-2-methylpyridin-3-yl]-2-[(2-methylbutan-2-yl)oxy]acetic Acid]
EC50: 12 nM

Cc1nc(C)c([C@H](OC(C)(C)C)C(=O)O)c(N2CCC(C)(C)CC2)c1-c1ccc2c(c1)CCN(c1ccnc(N3CCCC3)n1)C2 [Example 20, (2S)-2-(tert-Butoxy)-2-[4-(4,4-dimethylpiperidin-1-yl)-2,6-dimethyl-5-{2-[2-(pyrrolidin-1-yl)pyrimidin-4-yl]-1,2,3,4-tetrahydroisoquinolin-6-yl}pyridin-3-yl]acetic Acid]
EC50: 2 nM

Cc1cccc(Cl)c1CN1CCc2cc(-c3c(NCCN4CCOCC4)nc(C)c([C@H](OC(C)(C)C)C(=O)O)c3N3CCC(C)(C)CC3)ccc2C1 [Example 5, (S)-2-(tert-Butoxy)-2-(5-(2-(2-chloro-6-methylbenzyl)-1,2,3,4-tetrahydroisoquinolin-6-yl)-4-(4,4-dimethylpiperidin-1-yl)-2-methyl-6-((2-morpholinoethyl)amino)pyridin-3-yl)acetic Acid]
EC50: 2 nM

Cc1nc(C)c([C@H](OC(C)(C)C)C(=O)O)c(N2CCC(C)(C)CC2)c1-c1ccc2c(c1)CCN(c1ccnc(N3CCS(=O)(=O)CC3)n1)C2 [Example 45, (S)-2-(tert-Butoxy)-2-(4-(4,4-dimethylpiperidin-1-yl)-5-(2-(2-(1,1-dioxidothiomorpholino)pyrimidin-4-yl)-1,2,3,4-tetrahydroisoquinolin-6-yl)-2,6-dimethylpyridin-3-yl)acetic Acid]
EC50: 8 nM

CC1(C)CCN(c2c(-c3ccc4c(c3)CCN(c3nccc(N5CCOCC5)n3)C4)c(N)nc(Cl)c2[C@H](OC(C)(C)C)C(=O)O)CC1 [Example 167, (S)-2-(6-Amino-2-chloro-4-(4,4-dimethylpiperidin-1-yl)-5-(2-(4-morpholinopyrimidin-2-yl)-1,2,3,4-tetrahydroisoquinolin-6-yl)pyridin-3-yl)-2-(tert-butoxy)acetic Acid]
EC50: 4 nM

Cc1nc(C)c([C@H](OC(C)(C)C)C(=O)O)c(N2CCC(C)(C)CC2)c1-c1ccc2c(c1)CCN(c1cc(N3CCN(C)CC3)ncn1)C2 [Example 129, (S)-2-(tert-Butoxy)-2-(4-(4,4-dimethylpiperidin-1-yl)-2,6-dimethyl-5-(2-(6-(4-methylpiperazin-1-yl)pyrimidin-4-yl)-1,2,3,4-tetrahydroisoquinolin-6-yl)pyridin-3-yl)acetic Acid]
EC50: 12 nM

Cc1nc(C)c([C@H](OC(C)(C)C)C(=O)O)c(N2CCC(C)(C)CC2)c1-c1ccc2c(c1)CCN(c1nccc(N3CCN4CCC3CC4)n1)C2 [Example 44, (2S)-2-(tert-Butoxy)-2-{5-[2-(4-{1,4-diazabicyclo[3.2.2]nonan-4-yl}pyrimidin-2-yl)-1,2,3,4-tetrahydroisoquinolin-6-yl]-4-(4,4-dimethylpiperidin-1-yl)-2,6-dimethylpyridin-3-yl}acetic Acid]
EC50: 27 nM

Cc1nc(C)c([C@H](OC(C)(C)C)C(=O)O)c(N2CCC(C)(C)CC2)c1-c1ccc2c(c1)CCN(c1nccc(N3C4CCC3COC4)n1)C2 [Example 32, (2S)-2-(tert-Butoxy)-2-[4-(4,4-dimethylpiperidin-1-yl)-2,6-dimethyl-5-[2-(4-{3-oxa-8-azabicyclo[3.2.1]octan-8-yl}pyrimidin-2-yl)-1,2,3,4-tetrahydroisoquinolin-6-yl]pyridin-3-yl]acetic Acid]
EC50: 1 nM

Cc1nc(C)c([C@H](OC(C)(C)C)C(=O)O)c(N2CCC(C)(C)CC2)c1-c1ccc2c(c1)CCN(c1cc(N3C[C@@H](C)O[C@@H](C)C3)ncn1)C2 [Example 130, (S)-2-(tert-Butoxy)-2-(5-(2-(6-((2S,6R)-2,6-dimethylmorpholino)pyrimidin-4-yl)-1,2,3,4-tetrahydroisoquinolin-6-yl)-4-(4,4-dimethylpiperidin-1-yl)-2,6-dimethylpyridin-3-yl)acetic Acid]
EC50: 5 nM

Cc1nc(C)c([C@H](OC(C)(C)C)C(=O)O)c(N2CCC(C)(C)CC2)c1-c1ccc2c(c1)CCN(c1cnnc(N3CCOCC3)c1)C2 [Example 73, (S)-2-(tert-Butoxy)-2-(4-(4,4-dimethylpiperidin-1-yl)-2,6-dimethyl-5-(2-(6-morpholinopyridazin-4-yl)-1,2,3,4-tetrahydroisoquinolin-6-yl)pyridin-3-yl)acetic Acid]
EC50: 69 nM

Cc1nc(CO)c(-c2ccc3c(c2)CCN(c2nccc(-c4cccnc4)n2)C3)c(N2CCC(C)(C)CC2)c1[C@H](OC(C)(C)C)C(=O)O [Example 164, (S)-2-(tert-Butoxy)-2-(4-(4,4-dimethylpiperidin-1-yl)-6-(hydroxymethyl)-2-methyl-5-(2-(4-(pyridin-3-yl)pyrimidin-2-yl)-1,2,3,4-tetrahydroisoquinolin-6-yl)pyridin-3-yl)acetic Acid]
EC50: 2 nM

Cc1nc(-c2cnn(C)c2C)c(-c2ccc3c(c2)CCN(c2ncnc4c2oc2ccccc24)C3)c(N2CCC(C)(C)CC2)c1[C@H](OC(C)(C)C)C(=O)O [Example 13, (S)-2-(5-(2-(Benzofuro[3,2-d]pyrimidin-4-yl)-1,2,3,4-tetrahydroisoquinolin-6-yl)-6-(1,5-dimethyl-1H-pyrazol-4-yl)-4-(4,4-dimethylpiperidin-1-yl)-2-methylpyridin-3-yl)-2-(tert-butoxy)acetic Acid]
EC50: 2 nM

Cc1nc(C)c([C@H](OC(C)(C)C)C(=O)O)c(N2CCC(C)(C)CC2)c1-c1ccc2c(c1)CCN(c1nccc(N3CCC(CCO)CC3)n1)C2 [Example 81, (S)-2-(tert-Butoxy)-2-(4-(4,4-dimethylpiperidin-1-yl)-5-(2-(4-(4-(2-hydroxyethyl)piperidin-1-yl)pyrimidin-2-yl)-1,2,3,4-tetrahydroisoquinolin-6-yl)-2,6-dimethylpyridin-3-yl)acetic Acid]
EC50: 4 nM

Cc1nc(C)c([C@H](OC(C)(C)C)C(=O)O)c(N2CCC(C)(C)CC2)c1-c1ccc2c(c1)CCN(c1nccc(N3CCC(CC(C)(C)O)CC3)n1)C2 [Example 145, (S)-2-(tert-Butoxy)-2-(4-(4,4-dimethylpiperidin-1-yl)-5-(2-(4-(4-(2-hydroxy-2-methylpropyl)piperidin-1-yl)pyrimidin-2-yl)-1,2,3,4-tetrahydroisoquinolin-6-yl)-2,6-dimethylpyridin-3-yl)acetic Acid]
EC50: 10 nM

Cc1cccc(Cl)c1CN1CCc2cc(-c3c(NCCCN4CCN(C)CC4)nc(C)c([C@H](OC(C)(C)C)C(=O)O)c3N3CCC(C)(C)CC3)ccc2C1 [Example 11]
EC50: 2 nM

Cc1nc(C)c([C@H](OC(C)(C)C)C(=O)O)c(N2CCC(C)(C)CC2)c1-c1ccc2c(c1)CCN(c1ncnc(N3CCC(CO)CC3)n1)C2 [Example 62, (S)-2-(tert-Butoxy)-2-(4-(4,4-dimethylpiperidin-1-yl)-5-(2-(4-(4-(hydroxymethyl)piperidin-1-yl)-1,3,5-triazin-2-yl)-1,2,3,4-tetrahydroisoquinolin-6-yl)-2,6-dimethylpyridin-3-yl)acetic Acid]
EC50: 3 nM
